Patent US6660255B1, “Inhibition of gene transcription by polyamide DNA-binding ligands” (California Institute of Technology, priority 1997, dated 2003)

Tests used:
LEF-1 DBD = assay: footprint; details: 10 mM Hepes pH 7.5, 100 mM KCl
TFIIIA = assay: footprint; details: DNase I; binding inhibited >90% by 5 nM polyamide ImPyPyPy-γ-ImPyPyPy-β-Dp
5′-TGTTACA-3′ = assay: Quantitative DNase I footprint titration, pJT2B2 fragment; type: binding
[1] = test system: TBP binding and basal transcription at the CMV MIEP; assay: TBP binding and basal transcription, CMV MIEP; type: biochemical, human cytomegalovirus
Excerpt: (§1) This method is a useful general approach for modulation of gene expression. For example, specific polyamides have been designed and synthesized that bind to double stranded DNA adjacent to the TATA element of the human cytomegalovirus major immediate early promoter (CMV MIEP). Polyamide CMV-1, ImImPyPy-γ-ImPyPyPy-β-Dp, binds the identified target sequence 5′-AGGTCT-3′, where the last T of this sequence is the 5′ T of the TATA element.

[2] = target: 5′-AGGTCT-3′ adjacent to the TATA box of the CMV MIEP; assay: Binding to the CMV MIEP next to the TATA element; design: species or system human cytomegalovirus; details: read-out: apparent dissociation constant
Excerpt: as §1

[3] = target: 5′AGAATGA-3′ in the human Her-2/neu promoter; assay: Binding downstream of the Her-2/neu TATA element; details: read-out: apparent dissociation constant
Excerpt: (§2) In another example, a polyamide was designed to bind immediately downstream of the TATA element found in the human Her-2/neu breast cancer oncogene promoter. […] Her-2/neu is recognized to be over-expressed in several cancers, including human gynecologic adenocarcinomas, including those of the ovary, endometrium, breast, fallopian tube and cervix (Cirisano, F. D., & Karlan, B. Y., J. Soc. Gynecol. Investig. 3 99-105 (1996)).

[4] = test system: TBP binding and transcription at the Her-2/neu promoter; assay: TBP binding and transcription, Her-2/neu promoter; type: biochemical, human
Excerpt: as §2

[5] = test system: 5′-WGWWWCW-3′ target sequence; details: hairpin conformation; Trauger et al. 1996; cited from earlier work
HIV-1 TATA element = assay: TBP binding to the HIV-1 TATA element
Protocol: TBP binds the HIV-1 TATA element with a Kd of ˜1-3 nM.

TBP (rhTBP) = TBP (rhTBP) (Homo sapiens, UniProt P20226 P20226:1-339); assay: EMSA; not inhibited by HIV-1 polyamide; details: tags: Promega; label: 32P

HIV-1 LEF-1 site L2
Kd (LEF-1 DBD; 1 mM MgCl2): 5.8 nM

5S RNA gene internal control region
Kd (TFIIIA): 1 nM

HIV-1 enhancer LEF-1 site L1
Kd (LEF-1 DBD; 1 mM MgCl2, 1 mM DTT, 1.5 nM stated in p144): 1.4 nM

CN(C)CCCNC(=O)CCNC(=O)c1cc(NC(=O)c2cc(NC(=O)CCNC(=O)c3cc(NC(=O)c4nc(NC(=O)CCCNC(=O)c5cc(NC(=O)c6cc(NC(=O)CCNC(=O)c7cc(NC(=O)c8nccn8C)cn7C)cn6C)cn5C)cn4C)cn3C)cn2C)cn1C [polyamide 6, ImPy-β-PyPy-γ-ImPy-β-PyPy-β-Dp]
Equilibrium association constants, 5′-aTGTTACAt-3′ (5′-TGTTACA-3′; 24° C., pH 7.0, 10 mM Tris.HCl, 10 mM KCl, 10 mM MgCl2, 5 mM CaCl2, mean (SD)): greater than 1×10^9 M^−1 | fold higher affinity relative to unlinked analog (5′-TGTTACA-3′; polyamide 6 vs 9, polyamide 3 vs 7): ~1000 fold

HIV-1 LEF-1 site L3
Kd (LEF-1 DBD; 1 mM MgCl2): 4.9 nM

ImImPyPy-γ-ImPyPyPy-β-Dp [CMV-1]
inhibition of TBP binding and basal transcription [1]: effective inhibitor | Kd [2]: 1 nM

ImPy-β-PyIm-γ-PyPy-β-PyPy-β-Dp [Her2-1]
Kd [3]: 0.02 nM | inhibition of TBP binding and transcription [4]: effective inhibitor

ImPyPyPyPy-γ-ImPyPyPyPy-β-Dp [polyamide 3]
affinity for seven base pair target sequence [5]: subnanomolar

B1: TBP: TATA-box binding protein, recombinant human TBP (protein, UniProt P20226 1-339, looked up)
TATA-box-binding protein: MDQNNSLPPYAQGLASPQGAMTPGIPIFSPMMPYGTGLTPQPIQNTNSLSILEEQQRQQQQQQQQQQQQQQQQQQQQQQQQQQQQQQQQQQQQQQAVAAAAVQQSTSQQATQGTSGQAPQLFHSQTLTTAPLPGTTPLYPSPMTPMTPITPATPASESSGIVPQLQNIVSTVNLGCKLDLKTIALRARNAEYNPKRFAAVIMRIREPRTTALIFSSGKMVCTGAKSEEQSRLAARKYARVVQKLGFPAKFLDFKIQNMVGSCDVKFPIRLEGLVLTHQQFSSYEPELFPGLIYRMIKPRIVLLIFVSGKVVLTGAKVRAEIYEAFENIYPILKGFRKTT
Kd (HIV-1 TATA element): 1 to 3 nM

B2: AdML TATA region oligo (dsDNA)
DNA 1: GATCGGGGGCTATAAAAGGGGGTGGG
DNA 2: CCCACCCCCTTTTATAGCCCCCGATC
binding result (TBP (rhTBP)): binds
